Assay results reported in US12448373B2, “Azetidinyl-acetamides as CXCR7 inhibitors” (CHEMOCENTRYX, INC., priority 2021, dated 2025).

molecular target: T1, CXCR7 (Homo sapiens, UniProt P25106); experiment: CXCR7 β-arrestin recruitment assay in CHO-CXCR7 cells (ProLink/EA β-galactosidase complementation), induced by human SDF-1a; assay type: cell-based; conditions: assay buffer, SDF-1a at EC50 concentration
T1 construct: expressed in transfected cells; host or cells: CHO cells (CHO-CXCR7), transgenes maintained with Hygromycin B and G418
Method: CXCR7 is fused in frame with a small enzyme donor fragment ProLink and co-expressed in CHO cells stably expressing a fusion protein of β-arrestin and the larger, N-terminal deletion mutant of β-galactosidase (called enzyme acceptor or EA). Activation of the CXCR7 stimulates binding of β-arrestin to the ProLink-tagged CXCR7 and forces complementation of the two enzyme fragments, resulting in the formation of an active β-galactosidase enzyme. The β-galactosidase enzyme activity is measured with a substrate that generates fluorescence.
CHO-CXCR7 cells (0.22×10^6/mL) were cultured in growth medium (Ham's F-12 medium with 10% fetal bovine serum (FBS)), Hygromycin B (200 ug/mL) and G418 (250 ug/mL) were used to maintain the transgenes. The day before the assay, the cells were detached from culture dishes with 0.25% trypsin-EDTA (Corning, Catalog No. 25-053-CI), plated into 96 well plate (2.2×10^5 cells/mL, 100 μL/well) and incubated overnight at 37° C. with 5% CO2. On the day of the assay, cell culture medium was removed and 100 uL of assay buffer (PBS or FBS) was added to each well. 1 μL of compound that were serially diluted in DMSO was added to each well. 5 μL of human SDF-la (Pepro Tech, Catalog No. 300-28A, at EC50 concentration pre-determined on the same day) was then added and mixed to induce CXCR7-mediated β-arrestin recruitment. The plates were incubated for 1.5 hours at 37° C. The assay buffer was removed, 100 μL substrate solution was added and the reaction was carried out at 37° C. for 30 minutes. The substrate solution was prepared by mixing 100 mL Phosphate Buffer (1M, Sigma, Catalog No. P3619-1GA), 100 mL 10% Triton X 100 (Sigma, Catalog No. T8787.), 5 mL MgCl2 (1M, Sigma, Catalog No. M1028), 1.5 mL, β-mercaptoethanol (Gibco, Catalog No. 21985-023.). 3-carboxyumbelliferyl β-D-galactopyranoside (ThermoFisher Scientific, Catalo No. F2905) was added at 0.4 mM right before use. The reaction was then stopped by adding 50 μL of Stop Solution (2.1% w/v Na2CO3) to each well. Fluorescence intensity was measured with a FlexStation 3 microplate reader (Molecular Devices) with the following setting—excitation: 360 nm, emission: 465 nm, manual Gain: 55. IC50 values were calculated with GraphPad Prism using 3 parameter nonlinear regression.

T1 sequence (P25106 whole entry): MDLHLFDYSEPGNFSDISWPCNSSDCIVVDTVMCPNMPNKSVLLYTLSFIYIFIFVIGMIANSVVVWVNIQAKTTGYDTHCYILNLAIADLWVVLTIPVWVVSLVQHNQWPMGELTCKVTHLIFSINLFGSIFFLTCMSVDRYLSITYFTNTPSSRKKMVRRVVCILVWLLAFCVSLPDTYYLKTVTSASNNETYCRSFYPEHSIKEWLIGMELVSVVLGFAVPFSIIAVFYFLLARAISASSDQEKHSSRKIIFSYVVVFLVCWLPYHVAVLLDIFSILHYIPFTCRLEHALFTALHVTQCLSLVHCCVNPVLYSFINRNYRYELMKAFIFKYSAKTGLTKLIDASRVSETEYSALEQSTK

IC50 [nM] | Compound
100 to 1000 | CC(C)(NC(=O)CC1(NC(=O)c2cc(-c3ccc(F)cc3F)on2)CN([C@H]2CC[C@](C)(O)CC2)C1)c1c(F)cccc1F [Example 1.258]
< 5 | CC(C)(NC(=O)CC1(NC(=O)c2cc(-c3ccc(F)cc3F)on2)CN([C@H]2CC[C@](C)(O)CC2)C1)c1cc(F)cc(Cl)c1 [Example 1.124]
5 to 100 | CC(C)(NC(=O)CC1(NC(=O)c2cc(-c3ccc(F)cc3F)on2)CN([C@H]2CC[C@@](C)(O)CC2)C1)c1ccc(F)c(F)c1 [Example 1.256]
1000 to 20000 | Cn1nc(-c2ccc(F)cc2F)cc1C(=O)NC1(CC(=O)NC(C)(C)c2cccc(Cl)c2)CN([C@H]2CC[C@@](C)(O)CC2)C1 [Example 1.058]
1000 to 20000 | C[C@]1(O)CC[C@H](N2CC(CC(=O)NCc3cccc(Cl)c3)(NC(=O)c3cc(-c4ccc(F)cc4F)on3)C2)CC1 [Example 1.110]
1000 to 20000 | C[C@]1(O)CC[C@@H](N2CC(CC(=O)NCc3c[nH]c4ccccc34)(NC(=O)c3cc(-c4ccc(F)cc4F)on3)C2)CC1 [Example 1.278]
5 to 100 | COc1cc(C(C)(C)NC(=O)CC2(NC(=O)c3cc(-c4ccc(F)cc4F)on3)CN([C@H]3CC[C@](C)(O)CC3)C2)ccc1F [Example 1.177]
1000 to 20000 | CC1(CN2CC(CC(=O)NC(C)(C)c3cccc(C(F)(F)F)n3)(NC(=O)c3cc(-c4ccc(F)cc4F)on3)C2)COC1 [Example 1.130]
5 to 100 | COc1cccc(C(C)(C)NC(=O)CC2(NC(=O)c3cc(-c4ccc(F)cc4F)on3)CN(C3CCCCC3)C2)n1 [Example 1.272]
1000 to 20000 | O=C(CC1(NC(=O)c2cc(-c3ccc(F)cc3F)on2)CN(C2CCCCC2)C1)N[C@@H](C(=O)O)c1ccccc1 [Example 1.282]
1000 to 20000 | CC(C)(NC(=O)CC1(NC(=O)c2cc(-c3ccc(F)cc3F)on2)CN([C@H]2CC[C@](C)(O)CC2)C1)c1cccc2[nH]ncc12 [Example 1.087]
< 5 | COc1ccc(F)cc1C(C)(C)NC(=O)CC1(NC(=O)c2cc(-c3ccc(F)cc3F)on2)CN([C@H]2CC[C@](C)(O)CC2)C1 [Example 1.266]
5 to 100 | CC(C)(NC(=O)CC1(NC(=O)c2cc(-c3ccc(F)cc3F)on2)CN(C2CCOCC2)C1)c1cccc(Cl)c1 [Example 1.095]
< 5 | CC(C)(NC(=O)CC1(NC(=O)c2nnc(-c3ccc(F)cc3F)s2)CN(C2CCCCC2)C1)c1ccccn1 [Example 1.072]
5 to 100 | CC(C)(NC(=O)CC1(NC(=O)c2cc(-c3ccc(F)cc3F)on2)CN([C@H]2CC[C@@](C)(O)CC2)C1)c1cccc(C2CC2)c1 [Example 1.143]
< 5 | CC(C)(NC(=O)CC1(NC(=O)c2cc(-c3ccc(F)cc3F)on2)CN([C@H]2CC[C@@](C)(O)CC2)C1)c1cc(Cl)cc(Cl)c1 [Example 1.086]
100 to 1000 | CC(C)(NC(=O)CC1(NC(=O)c2cc(-c3ccc(F)cc3F)sn2)CN([C@H]2CC[C@@](C)(O)CC2)C1)c1cccc(Cl)c1 [Example 1.043]
< 5 | CC(C)(NC(=O)CC1(NC(=O)c2cc(-c3ccc(F)cc3F)on2)CN([C@H]2CC[C@](C)(O)CC2)C1)c1cccc(Cl)c1 [Example 1.221]
5 to 100 | CC(C)(NC(=O)CC1(NC(=O)c2cnc(-c3ccc(F)cc3F)s2)CN([C@H]2CC[C@](C)(O)CC2)C1)c1cccc(Cl)c1 [Example 1.069]
5 to 100 | CC(C)(NC(=O)CC1(NC(=O)c2nnc(-c3ccc(F)cc3F)s2)CN([C@H]2CC[C@](C)(O)CC2)C1)c1cccc(C#N)c1 [Example 1.025]
< 5 | Cc1cc(C)nc(C(C)(C)NC(=O)CC2(NC(=O)c3nnc(-c4ccc(F)cc4F)s3)CN(C3CCCCC3)C2)n1 [Example 1.070]
< 5 | CC(C)(NC(=O)CC1(NC(=O)c2nnc(-c3ccc(F)cc3F)s2)CN([C@H]2CC[C@](C)(O)CC2)C1)c1cccc(F)c1 [Example 1.042]

IC50 [nM] | Compound
< 5 | Cc1ccc(C)c(C(C)(C)NC(=O)CC2(NC(=O)c3nnc(-c4ccc(F)cc4F)s3)CN([C@H]3CC[C@](C)(O)CC3)C2)n1 [Example 1.011]
5 to 100 | Cc1cc(C(C)(C)NC(=O)CC2(NC(=O)c3nnc(-c4ccc(F)cc4F)s3)CN([C@H]3CC[C@](C)(O)CC3)C2)ccn1 [Example 1.335]
< 5 | CC(C)(NC(=O)CC1(NC(=O)c2cc(-c3ccc(F)cc3F)on2)CN([C@H]2CC[C@@](C)(O)CC2)C1)c1cccc2cc[nH]c12 [Example 1.115]
5 to 100 | CCOc1cccc(C(C)(C)NC(=O)CC2(NC(=O)c3cc(-c4ccc(F)cc4F)on3)CN([C@H]3CC[C@@](C)(O)CC3)C2)c1 [Example 1.186]
100 to 1000 | Cc1ccc(C(C)(C)NC(=O)CC2(NC(=O)c3cc(-c4ccc(F)cc4F)on3)CN([C@H]3CC[C@@](C)(O)CC3)C2)cc1C(F)(F)F [Example 1.261]
1000 to 20000 | C[C@]1(O)CC[C@@H](N2CC(CC(=O)NCc3ccccc3)(NC(=O)c3cc(-c4ccc(F)cc4F)on3)C2)CC1 [Example 1.127]
< 5 | CC(C)(NC(=O)CC1(NC(=O)c2cc(-c3ccc(F)cc3F)on2)CN([C@H]2CC[C@@](C)(O)CC2)C1)c1ccccc1Cl [Example 1.218]
< 5 | COc1cc(Cl)cc(C(C)(C)NC(=O)CC2(NC(=O)c3cc(-c4ccc(F)cc4F)on3)CN([C@H]3CC[C@](C)(O)CC3)C2)c1 [Example 1.165]
5 to 100 | CC(C)(NC(=O)CC1(NC(=O)c2cc(-c3ccc(F)cc3)on2)CN([C@H]2CC[C@@](C)(O)CC2)C1)c1ccccc1 [Example 1.089]
< 5 | CC(C)(NC(=O)CC1(NC(=O)c2cc(-c3ccc(F)cc3F)on2)CN(C2CCCCC2)C1)c1ccnc2[nH]ccc12 [Example 1.082]
5 to 100 | CC(C)(NC(=O)CC1(NC(=O)c2nnc(-c3ccc(F)cc3F)s2)CN([C@H]2CC[C@](C)(O)CC2)C1)c1cc(F)cc(F)c1 [Example 1.028]
< 5 | CC(C)(NC(=O)CC1(NC(=O)c2cc(-c3ccc(F)cc3F)on2)CN([C@H]2CC[C@@](C)(O)CC2)C1)c1ccncc1 [Example 1.180]
< 5 | COc1cc(C(C)(C)NC(=O)CC2(NC(=O)c3cc(-c4ccc(F)cc4F)on3)CN([C@H]3CC[C@@](C)(O)CC3)C2)ccn1 [Example 1.188]
1000 to 20000 | CC(N1CC(CC(=O)NC(C)(C)c2ccccn2)(NC(=O)c2cc(-c3ccc(F)cc3F)on2)C1)C(F)(F)F (stereo not shown) [Example 1.312]
100 to 1000 | O=C(CC1(NC(=O)c2cc(-c3ccc(F)cc3F)on2)CN(C2CCOCC2)C1)NC1(c2ncccn2)CC1 [Example 1.328]
5 to 100 | CC(C)(NC(=O)CC1(NC(=O)c2cc(-c3ccc(F)cc3F)on2)CN(C2CCC3(CC2)COC3)C1)c1cc(Cl)cc(Cl)c1 [Example 1.092]
< 5 | CC(C)(NC(=O)CC1(NC(=O)c2cc(-c3ccc(F)cc3F)on2)CN(C2CCCCC2)C1)c1ccccc1C(F)(F)F [Example 1.308]
< 5 | CC(C)(NC(=O)CC1(NC(=O)c2cc(-c3ccc(F)cc3F)on2)CN(C2CCCCC2)C1)c1ccccn1 [Example 1.326]
< 5 | Cc1cc(C(C)(C)NC(=O)CC2(NC(=O)c3cc(-c4ccc(F)cc4F)on3)CN([C@H]3CC[C@@](C)(O)CC3)C2)ccn1 [Example 1.210]
< 5 | Cc1cc(C#N)cc(C(C)(C)NC(=O)CC2(NC(=O)c3nnc(-c4ccc(F)cc4F)s3)CN([C@H]3CC[C@](C)(O)CC3)C2)n1 [Example 1.337]
5 to 100 | COc1ccc(F)c(C(C)(C)NC(=O)CC2(NC(=O)c3cc(-c4ccc(F)cc4F)on3)CN([C@H]3CC[C@@](C)(O)CC3)C2)c1 [Example 1.205]
